Experimental data taken from US7700602B2, “Amino-5,5-diphenylimidazolone derivatives for the inhibition of β-secretase” (Wyeth LLC, priority 2004, dated 2010).

Assays:
human BACE1 = human BACE1 (Homo sapiens, UniProt P56817); assay: Fluorescent kinetic assay, inhibition of BACE1 (WABC-6 peptide substrate); format: biochemical; conditions: 10 nM enzyme, 25 μM substrate WABC-6, pH 4.5, room temperature; read-out: IC50 (μM) BACE1;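 further: fluorescence monitored at 320 nm excitation and 420 nm emission every 40 s over 30 min, with the substrate cleavage rate taken from the linear slope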
Chain of human BACE1 (P56817 46-501): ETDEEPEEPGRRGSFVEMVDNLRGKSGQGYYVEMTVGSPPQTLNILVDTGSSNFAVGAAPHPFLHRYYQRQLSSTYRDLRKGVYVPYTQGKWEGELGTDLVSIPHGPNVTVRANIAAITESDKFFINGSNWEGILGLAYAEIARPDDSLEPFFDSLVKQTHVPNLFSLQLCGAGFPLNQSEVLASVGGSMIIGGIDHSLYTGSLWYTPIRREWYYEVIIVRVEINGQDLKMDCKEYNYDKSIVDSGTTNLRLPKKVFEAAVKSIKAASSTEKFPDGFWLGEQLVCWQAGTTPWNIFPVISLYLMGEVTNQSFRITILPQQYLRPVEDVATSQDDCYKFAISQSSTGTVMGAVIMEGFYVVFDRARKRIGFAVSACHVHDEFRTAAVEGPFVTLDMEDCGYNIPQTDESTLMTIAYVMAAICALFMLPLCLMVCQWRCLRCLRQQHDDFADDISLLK

human BACE2 = biological target: T1, human BACE2 (Homo sapiens, UniProt Q9Y5Z0); assay: Fluorescent Kinetic Assay for Human Recombinant BACE 2 (selectivity BACE1/BACE2); format: biochemical; conditions: selectivity BACE1 over BACE2; 1.5 nM human BACE2, 25 μM substrate, pH 4.5;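 further: cleavage rate from the linear slope of fluorescence (excitation 320 nm, emission 420 nm) recorded every 40 s over 30 min at room temperature, sodium acetate buffer with 0.05% CHAPS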
T1 sequence (Q9Y5Z0 63-518): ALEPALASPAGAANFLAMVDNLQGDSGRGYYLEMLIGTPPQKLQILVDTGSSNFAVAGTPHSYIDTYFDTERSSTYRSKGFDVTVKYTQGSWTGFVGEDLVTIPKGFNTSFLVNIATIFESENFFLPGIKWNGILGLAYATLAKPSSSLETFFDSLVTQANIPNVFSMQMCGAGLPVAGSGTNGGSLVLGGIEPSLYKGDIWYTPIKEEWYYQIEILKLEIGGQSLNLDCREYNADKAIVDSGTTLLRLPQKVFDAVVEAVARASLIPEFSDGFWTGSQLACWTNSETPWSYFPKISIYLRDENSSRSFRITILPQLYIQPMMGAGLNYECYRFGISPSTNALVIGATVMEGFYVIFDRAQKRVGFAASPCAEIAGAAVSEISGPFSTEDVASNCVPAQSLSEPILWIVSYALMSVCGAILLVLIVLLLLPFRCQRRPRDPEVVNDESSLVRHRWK

| IC50 (human BACE1) [µM] | BACE1/BACE2 selectivity (human BACE2) | melting point [°C] | Structure (SMILES) |
| --- | --- | --- | --- |
| 0.01 to 0.1 | I (I = >100-fold selectivity) | 101 to 103 | Cc1cc(C2(c3cccc(-c4cncnc4)c3)N=C(N)N(C)C2=O)ccc1OC(C)C (stereo not drawn) [Example 118] |
| 0.01 to 0.1 | II (II = 10-100-fold selectivity) | 103 to 105 | Cc1cc(C2(c3cccc(-c4cncnc4)c3)N=C(N)N(C)C2=O)ccc1OCC(C)C (stereo not drawn) [Example 122] |

Second part, the compound before the results:

| Structure (SMILES) | IC50 (human BACE1) [µM] | BACE1/BACE2 selectivity (human BACE2) | melting point [°C] |
| --- | --- | --- | --- |
| CCOC(=O)COc1ccc(C2(c3cccc(-c4cncnc4)c3)N=C(N)N(C)C2=O)cc1C (stereo not drawn) [Example 119] | 0.11 to 1 | II (II = 10-100-fold selectivity) | 105 to 107 |
| CCOc1ccc(C2(c3cccc(-c4cncnc4)c3)N=C(N)N(C)C2=O)cc1C (stereo not drawn) [Example 120] | 0.01 to 0.1 | I (I = >100-fold selectivity) | 106 to 108 |
| CCCOc1ccc(C2(c3cccc(-c4cncnc4)c3)N=C(N)N(C)C2=O)cc1C (stereo not drawn) [Example 121] | 0.01 to 0.1 | II (II = 10-100-fold selectivity) | 102 to 104 |
| Cc1cc(C2(c3cccc(-c4cncnc4)c3)N=C(N)N(C)C2=O)ccc1OCCCOc1ccccc1 (stereo not drawn) [Example 124] | 0.01 to 0.1 | II (II = 10-100-fold selectivity) | 72 to 74 |
| CN1C(=S)C(c2ccc(OC(F)(F)F)cc2)(c2cccc(-c3cccnc3F)c2)N=C1N (stereo not drawn) [Example 145, 2-Amino-5-[3-(2-fluoro-pyridin-3-yl)-phenyl]-3-methyl-5-(4-trifluoromethoxy-phenyl)-3,5-dihydro-imidazole-4-thione] | 0.01 to 0.1 | II (II = 10-100-fold selectivity) | 89 to 99 |
